Laboratory results from US7138361B2, “Herbicidal heterocycles” (E. I. du Pont de Nemours and Company, priority 2000, dated 2006).

Tests used:
Type in all cases: in vivo
[1] = system: velvetleaf (Abutilon theophrasti); test: Test B postemergence
In short: (§1)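 Greenhouse test: chemicals are formulated in a surfactant-containing non-phytotoxic solvent and applied either preemergence to planted seeds or postemergence to plants 2 to 18 cm tall. Response is rated visually versus controls after 13 to 15 days, 0 meaning no effect and 100 complete control.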

[2] = system: wild oat (Avena fatua); test: Test B postemergence
In short: as §1

[3] = system: wheat (Triticum aestivum); test: Test B postemergence
In short: as §1

[4] = system: corn (Zea mays); test: Test B postemergence
In short: as §1

[5] = system: blackgrass (Alopecurus myosuroides); test: Test B postemergence
In short: as §1

[6] = system: velvetleaf (Abutilon theophrasti); test: Test C preemergence; details: for Plant response rating (0 to 100), Velvetleaf: Rate 500 g/ha, visual evaluation after 12 to 14 days
In short: (§2)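 Visual 0–100 rating vs controls (0 = no effect, 100 = complete control) at 12–14 d, greenhouse. Compounds in non-phytotoxic solvent + surfactant; pre: sprayed after seeding; post: 1–4-leaf plants, 2–18 cm.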

[7] = system: bermudagrass (Cynodon dactylon); test: Test C preemergence; details: for Plant response rating (0 to 100 where 0 is no effect and 100 is complete control), Bermudagrass: Rate 500 g/ha, visual evaluation after 12 to 14 days
In short: as §2

[8] = system: morningglory (Ipomoea hederacea); test: Test C preemergence
In short: as §2

[9] = system: soybean (Glycine max); test: Test C preemergence; details: for Plant response rating (0 to 100), Soybean: Rate 500 g/ha, visual evaluation after 12 to 14 days
In short: as §2

[10] = system: johnsongrass (Sorghum halepense); test: Test C preemergence; details: for Plant response rating (0 to 100), Johnsongrass: Rate 500 g/ha, visual evaluation after 12 to 14 days
In short: as §2

[11] = system: giant foxtail (Setaria faberii); test: Test C preemergence; details: for Plant response rating (0 to 100), Foxtail, Giant: Rate 500 g/ha, visual evaluation after 12 to 14 days
In short: as §2

[12] = system: crabgrass (Digitaria sanguinalis); test: Test C preemergence; details: for Plant response rating (0 to 100), Crabgrass: Rate 500 g/ha, visual evaluation after 12 to 14 days
In short: as §2

[13] = system: pigweed (Amaranthus retroflexus); test: Test C preemergence; details: for Plant response rating (0 to 100), Pigweed: Rate 500 g/ha, visual evaluation after 12 to 14 days
In short: as §2

[14] = system: woolly cupgrass (Eriochloa villosa); test: Test C preemergence; details: for Plant response rating (0 to 100), Cupgrass, Woolly: Rate 500 g/ha, visual evaluation after 12 to 14 days
In short: as §2

[15] = system: Sunflower; test: Test C preemergence; details: Rate 125 g/ha; scale 0 to 100, 0 no effect, 100 complete control
[16] = system: yellow nutsedge (Cyperus esculentus); test: Test C preemergence; details: for Plant response rating (0 to 100), Nutsedge: Rate 500 g/ha, visual evaluation after 12 to 14 days
In short: as §2

[17] = system: Surinam grass (Brachiaria decumbens); test: Test C preemergence; details: for Plant response rating (0 to 100), Surinam grass: Rate 500 g/ha, visual evaluation after 12 to 14 days
In short: as §2

[18] = system: corn (Zea mays); test: Test C preemergence; details: for Plant response rating (0 to 100), Corn: Rate 500 g/ha, visual evaluation after 12 to 14 days
In short: as §2

[19] = system: lambsquarters (Chenopodium album); test: Test C preemergence; details: for Plant response rating (0 to 100), Lambsquarters: Rate 500 g/ha, visual evaluation after 12 to 14 days
In short: as §2

[20] = system: goosegrass (Eleusine indica); test: Test C preemergence; details: for Plant response rating (0 to 100), Goosegrass: Rate 500 g/ha, visual evaluation after 12 to 14 days
In short: as §2

[21] = Rate 125 g/ha, scale 0 to 100, 0 no effect, 100 complete control
[22] = Rate 500 g/ha, scale 0 (no effect) to 100 (complete control), 13 to 15 days
[23] = preemergence, Rate 62 g/ha, scale 0 to 100
[24] = preemergence, Rate 250 g/ha, scale 0 to 100, 0 no effect, 100 complete control

For `COc1cc(N2CCC(n3ccc(C(C)(C)C)n3)C2=O)ccc1Br` (stereo not shown) [Compound 141], the “Plant response rating, Velvetleaf” value [1, 21] was 50, the “Plant response rating, Velvetleaf” value [1, 22] was 70 and the “Plant response rating, Wild Oat” value [2, 21] was 0. For the same compound, the “Plant response rating, Wild Oat” value [2, 22] was 0, the “Plant response rating, Wheat” value [3, 21] was 0 and the “Plant response rating, Wheat” value [3, 22] was 0. The “Plant response rating, Corn” value [4, 21] was 0, the “Plant response rating, Corn” value [4, 22] was 0 and the “Plant response rating, Blackgrass” value [5, 21] was 0. The “Plant response rating, Blackgrass” value [5, 22] was 40, the “Plant response rating, Velvetleaf” value [6, 21] was 70 and the “Plant response rating, Velvetleaf” value [6, 23] was 70. For the same compound, the “Plant response rating (0 to 100), Velvetleaf” value ([6]; preemergence) was 100, the “Plant response rating, Velvetleaf” value [6, 24] was 70 and the “Plant response rating, Bermudagrass” value [7, 21] was 100. For the same compound, the “Plant response rating, Bermudagrass” value [7, 23] was 100, the “Plant response rating (0 to 100 where 0 is no effect and 100 is complete control), Bermudagrass” value ([7]; preemergence) was 100 and the “Plant response rating, Bermudagrass” value [7, 24] was 100. For the same compound, the “Plant response rating, Morningglory” value [8, 21] was 100, the “Plant response rating, Morningglory” value [8, 23] was 30 and the “Plant response rating (0 to 100), Morningglory” value ([8]; preemergence, Rate 500 g/ha, visual evaluation after 12 to 14 days) was 100. For the same compound, the “Plant response rating, Morningglory” value [8, 24] was 100, the “Plant response rating, Soybean” value [9, 21] was 100 and the “Plant response rating, Soybean” value [9, 23] was 70. The “Plant response rating (0 to 100), Soybean” value ([9]; preemergence) was 100, the “Plant response rating, Soybean” value [9, 24] was 100 and the “Plant response rating, Johnsongrass” value [10, 21] was 0. The “Plant response rating, Johnsongrass” value [10, 23] was 0, the “Plant response rating (0 to 100), Johnsongrass” value ([10]; preemergence) was 100 and the “Plant response rating, Johnsongrass” value [10, 24] was 0. For the same compound, the “Plant response rating, Foxtail, Giant” value [11, 21] was 100, the “Plant response rating, Foxtail, Giant” value [11, 23] was 100 and the “Plant response rating (0 to 100), Foxtail, Giant” value ([11]; preemergence) was 100. For the same compound, the “Plant response rating, Foxtail, Giant” value [11, 24] was 100, the “Plant response rating, Crabgrass” value [12, 21] was 100 and the “Plant response rating, Crabgrass” value [12, 23] was 100. For the same compound, the “Plant response rating (0 to 100), Crabgrass” value ([12]; preemergence) was 100, the “Plant response rating, Crabgrass” value [12, 24] was 100 and the “Plant response rating, Pigweed” value [13, 21] was 100. For the same compound, the “Plant response rating, Pigweed” value [13, 23] was 100, the “Plant response rating (0 to 100), Pigweed” value ([13]; preemergence) was 100 and the “Plant response rating, Pigweed” value [13, 24] was 100. For the same compound, the “Plant response rating, Cupgrass, Woolly” value [14, 21] was 100, the “Plant response rating, Cupgrass, Woolly” value [14, 23] was 100 and the “Plant response rating (0 to 100), Cupgrass, Woolly” value ([14]; preemergence) was 100. The “Plant response rating, Cupgrass, Woolly” value [14, 24] was 100, the “Plant response rating, Sunflower” value [15] was 40 and the “Plant response rating, Nutsedge” value [16, 21] was 0. The “Plant response rating, Nutsedge” value [16, 23] was 0, the “Plant response rating (0 to 100), Nutsedge” value ([16]; preemergence) was 50 and the “Plant response rating, Nutsedge” value [16, 24] was 0. The “Plant response rating, Surinam grass” value [17, 21] was 20, the “Plant response rating, Surinam grass” value [17, 23] was 10 and the “Plant response rating (0 to 100), Surinam grass” value ([17]; preemergence) was 100. The “Plant response rating, Surinam grass” value [17, 24] was 20, the “Plant response rating, Corn” value [18, 21] was 30 and the “Plant response rating, Corn” value [18, 23] was 0. The “Plant response rating (0 to 100), Corn” value ([18]; preemergence) was 30, the “Plant response rating, Corn” value [18, 24] was 30 and the “Plant response rating, Lambsquarters” value [19, 21] was 100. The “Plant response rating, Lambsquarters” value [19, 23] was 100, the “Plant response rating (0 to 100), Lambsquarters” value ([19]; preemergence) was 100 and the “Plant response rating, Lambsquarters” value [19, 24] was 100. For the same compound, the “Plant response rating, Goosegrass” value [20, 21] was 100, the “Plant response rating, Goosegrass” value [20, 23] was 100 and the “Plant response rating (0 to 100), Goosegrass” value ([20]; preemergence) was 100. For the same compound, the “Plant response rating, Goosegrass” value [20, 24] was 100.

For `CCC(C)c1ccn(C2CCN(c3ccc(F)c(C(F)(F)F)c3)C2=O)n1` (stereo not shown) [Compound 145], the “Plant response rating, Velvetleaf” value [1, 21] was 0, the “Plant response rating, Velvetleaf” value [1, 22] was 30 and the “Plant response rating, Wild Oat” value [2, 21] was 0. The “Plant response rating, Wild Oat” value [2, 22] was 0, the “Plant response rating, Wheat” value [3, 21] was 0 and the “Plant response rating, Wheat” value [3, 22] was 0. For the same compound, the “Plant response rating, Corn” value [4, 21] was 0, the “Plant response rating, Corn” value [4, 22] was 0 and the “Plant response rating, Blackgrass” value [5, 21] was 0. For the same compound, the “Plant response rating, Blackgrass” value [5, 22] was 0, the “Plant response rating, Velvetleaf” value [6, 21] was 0 and the “Plant response rating, Velvetleaf” value [6, 23] was 0. The “Plant response rating (0 to 100), Velvetleaf” value ([6]; preemergence) was 20, the “Plant response rating, Velvetleaf” value [6, 24] was 0 and the “Plant response rating, Bermudagrass” value [7, 21] was 100. For the same compound, the “Plant response rating, Bermudagrass” value [7, 23] was 60, the “Plant response rating (0 to 100 where 0 is no effect and 100 is complete control), Bermudagrass” value ([7]; preemergence) was 100 and the “Plant response rating, Bermudagrass” value [7, 24] was 100. The “Plant response rating, Morningglory” value [8, 21] was 100, the “Plant response rating, Morningglory” value [8, 23] was 0 and the “Plant response rating, Morningglory” value [8, 24] was 100. The “Plant response rating, Soybean” value [9, 21] was 30, the “Plant response rating, Soybean” value [9, 23] was 20 and the “Plant response rating (0 to 100), Soybean” value ([9]; preemergence) was 60. The “Plant response rating, Soybean” value [9, 24] was 30, the “Plant response rating, Johnsongrass” value [10, 21] was 10 and the “Plant response rating, Johnsongrass” value [10, 23] was 0. The “Plant response rating (0 to 100), Johnsongrass” value ([10]; preemergence) was 90, the “Plant response rating, Johnsongrass” value [10, 24] was 20 and the “Plant response rating, Foxtail, Giant” value [11, 21] was 100. For the same compound, the “Plant response rating, Foxtail, Giant” value [11, 23] was 100, the “Plant response rating (0 to 100), Foxtail, Giant” value ([11]; preemergence) was 100 and the “Plant response rating, Foxtail, Giant” value [11, 24] was 100. The “Plant response rating, Crabgrass” value [12, 21] was 100, the “Plant response rating, Crabgrass” value [12, 23] was 100 and the “Plant response rating (0 to 100), Crabgrass” value ([12]; preemergence) was 100. For the same compound, the “Plant response rating, Crabgrass” value [12, 24] was 100, the “Plant response rating, Pigweed” value [13, 21] was 100 and the “Plant response rating, Pigweed” value [13, 23] was 100. For the same compound, the “Plant response rating (0 to 100), Pigweed” value ([13]; preemergence) was 100, the “Plant response rating, Pigweed” value [13, 24] was 100 and the “Plant response rating, Cupgrass, Woolly” value [14, 21] was 100. The “Plant response rating, Cupgrass, Woolly” value [14, 23] was 20, the “Plant response rating (0 to 100), Cupgrass, Woolly” value ([14]; preemergence) was 100 and the “Plant response rating, Cupgrass, Woolly” value [14, 24] was 100. For the same compound, the “Plant response rating, Sunflower” value [15] was 0, the “Plant response rating, Nutsedge” value [16, 21] was 0 and the “Plant response rating, Nutsedge” value [16, 23] was 0. For the same compound, the “Plant response rating (0 to 100), Nutsedge” value ([16]; preemergence) was 0, the “Plant response rating, Nutsedge” value [16, 24] was 0 and the “Plant response rating, Surinam grass” value [17, 21] was 50. For the same compound, the “Plant response rating, Surinam grass” value [17, 23] was 0, the “Plant response rating (0 to 100), Surinam grass” value ([17]; preemergence) was 100 and the “Plant response rating, Surinam grass” value [17, 24] was 90. The “Plant response rating, Corn” value [18, 21] was 20, the “Plant response rating, Corn” value [18, 23] was 0 and the “Plant response rating (0 to 100), Corn” value ([18]; preemergence) was 40. The “Plant response rating, Corn” value [18, 24] was 40, the “Plant response rating, Lambsquarters” value [19, 21] was 100 and the “Plant response rating, Lambsquarters” value [19, 23] was 100. For the same compound, the “Plant response rating (0 to 100), Lambsquarters” value ([19]; preemergence) was 100, the “Plant response rating, Lambsquarters” value [19, 24] was 100 and the “Plant response rating, Goosegrass” value [20, 21] was 100. The “Plant response rating, Goosegrass” value [20, 23] was 90, the “Plant response rating (0 to 100), Goosegrass” value ([20]; preemergence) was 100 and the “Plant response rating, Goosegrass” value [20, 24] was 100.
